Earlier results, collected in PMC8823334 (ACS chemical neuroscience, 2021).

What was measured:
PAR4 [1] = biological target: T1, PAR4 (Homo sapiens, UniProt Q96RI0)
T1 sequence (Q96RI0 18-385): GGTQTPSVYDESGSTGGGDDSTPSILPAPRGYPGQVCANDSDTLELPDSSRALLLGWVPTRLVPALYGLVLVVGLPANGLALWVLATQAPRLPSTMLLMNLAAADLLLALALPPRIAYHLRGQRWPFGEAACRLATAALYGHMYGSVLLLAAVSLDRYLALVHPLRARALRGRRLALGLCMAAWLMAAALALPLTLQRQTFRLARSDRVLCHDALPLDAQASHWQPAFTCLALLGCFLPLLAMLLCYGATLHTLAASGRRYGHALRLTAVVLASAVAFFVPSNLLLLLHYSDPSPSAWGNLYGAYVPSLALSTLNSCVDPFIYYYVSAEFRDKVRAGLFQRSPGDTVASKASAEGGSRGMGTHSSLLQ

PAR4 [2] = settings: mice, suppression of neuroinflammation in astrocytes

COc1cc(OCc2nc(N3CCOCC3)sc2C)c2cc(-c3cn4nc(OC)sc4n3)oc2c1 [Compound 1]
mode of PAR4 inhibition (PAR4 [1]): noncompetitive mode of inhibition
protection against traumatic brain injury (PAR4 [2]): protected against traumatic brain injury (TBI) in mice
